The values that follow come from PubChem BioAssay (NCI).

Some test systems named below: K-562 leukemia; KM12 colon; SW-620 colon; SN12C renal; UACC-257 melanoma; NCI-H23 lung; HOP-62 NSCLC; CCRF-CEM leukemia; HOP-92 NSCLC.
Holding throughout (experiment): NCI tumour cell line growth inhibition, 48 h

Several values for one entry are separate records, joined by “and”; a condition that tells them apart may be missing. Equal values may be shown once.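 All cell lines were grown in 96-well plates and treated with compound for 48 hours. The concentration for 50% growth inhibition is given as GI50. Definition used: TGI = concentration required for complete inhibition of growth.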

Consider `Cn1c([N+](=O)[O-])cnc1/C=C1\Oc2cc(Cl)ccc2C1=O`, for which the GI50 is 1360 nM in the assay with K-562 leukemia; 501 nM in the assay on KM12 colon; 159 nM in the assay with SW-620 colon; 713 nM in the assay with SN12C renal; 997 nM with UACC-257 melanoma; 766 nM in the assay on NCI-H23 lung. Also, the figures for the GI50 in the assay on HOP-62 NSCLC, in the assay with CCRF-CEM leukemia and in the assay with HOP-92 NSCLC were 1880 nM, 148 nM and 1320 nM, respectively. The TGI with K-562 leukemia worked out at 21000 nM; in the assay on KM12 colon it was 6780 nM; in the assay on SW-620 colon it was 1060 nM; with SN12C renal, 6650 nM; in the assay on UACC-257 melanoma it was 4990 nM; with NCI-H23 lung, 4470 nM. Moreover, the values for the TGI with HOP-62 NSCLC, with CCRF-CEM leukemia and in the assay with HOP-92 NSCLC were 6070 nM, 754 nM and 5140 nM, respectively.
For the compound `CCN(CC)CCNC(=O)c1cn2ncnc(Oc3ccc(NC(=O)Nc4ccc(Cl)c(C(F)(F)F)c4)c(F)c3)c2c1C`, the GI50 in the assay with K-562 leukemia was 442 nM; in the assay on KM12 colon, 1570 nM; in the assay with SW-620 colon, 1910 nM; in the assay with SN12C renal, 1690 nM; with UACC-257 melanoma, 1610 nM; with NCI-H23 lung it was 1620 nM. The GI50 with HOP-62 NSCLC was 1880 nM; with CCRF-CEM leukemia, 1410 nM; in the assay with HOP-92 NSCLC, 1600 nM. The TGI was 2280 nM in the assay with K-562 leukemia; 3080 nM with KM12 colon; 3500 nM in the assay on SW-620 colon; 3400 nM in the assay on SN12C renal; 3180 nM in the assay with UACC-257 melanoma; 3170 nM in the assay on NCI-H23 lung. Moreover, the TGI with HOP-62 NSCLC was found to be 3720 nM; in the assay with CCRF-CEM leukemia it was 4290 nM; in the assay with HOP-92 NSCLC it was 3560 nM.
For the compound `O=C(O)CCC(NC(=S)S)C(=O)O.[Na+].[Zn+2]` (configuration not stated), the GI50 in the assay on K-562 leukemia, with KM12 colon, with SW-620 colon, in the assay on SN12C renal, in the assay with UACC-257 melanoma and in the assay with NCI-H23 lung was above 50000 nM each time. Also, the GI50 in the assay with HOP-62 NSCLC, with CCRF-CEM leukemia and with HOP-92 NSCLC was above 50000 nM each time. The TGI with K-562 leukemia, in the assay with KM12 colon, with SW-620 colon, in the assay on SN12C renal, in the assay on UACC-257 melanoma and with NCI-H23 lung was above 50000 nM in each case. Also, the TGI in the assay with HOP-62 NSCLC, in the assay with CCRF-CEM leukemia and in the assay on HOP-92 NSCLC was above 50000 nM each time.
Consider `CNC(=O)c1cc2c(Oc3ccc(NC(=O)C4(C(=O)Nc5ccc(F)cc5)CC4)cc3)ccnc2cc1OC`, for which the GI50 was 370 nM in the assay with K-562 leukemia; 196 nM in the assay with KM12 colon; 2640 nM with SW-620 colon; 1100 nM with SN12C renal; 3120 nM in the assay on UACC-257 melanoma; 2170 nM in the assay on NCI-H23 lung. The GI50 in the assay on HOP-62 NSCLC is 2670 nM; with CCRF-CEM leukemia it was 3000 nM; in the assay with HOP-92 NSCLC, 1030 nM. For the same compound, the TGI in the assay on K-562 leukemia was 3400 nM; in the assay with KM12 colon, above 100000 nM; in the assay with SW-620 colon, above 100000 nM; with SN12C renal, above 100000 nM; in the assay on UACC-257 melanoma, above 100000 nM; in the assay on NCI-H23 lung, above 100000 nM. Also, the TGI is above 100000 nM with HOP-62 NSCLC, above 100000 nM with CCRF-CEM leukemia and 4750 nM with HOP-92 NSCLC.
Turning to `Cc1nc(Nc2n[nH]c3c2CN(C(=O)N[C@H](CN(C)C)c2ccccc2)C3(C)C)c2sccc2n1`, the GI50 with K-562 leukemia was 24.2 nM and 199 nM; with KM12 colon it was 49.3 nM and 73.9 nM; with SW-620 colon it was 24.4 nM and 34.6 nM; in the assay on SN12C renal, 19.3 nM and < 17.6 nM; with UACC-257 melanoma it was below 10.6 nM; in the assay with NCI-H23 lung, 13.6 nM and 20.7 nM. Moreover, the GI50 is 72.4 nM and 129 nM with HOP-62 NSCLC; 286 nM and 400 nM with CCRF-CEM leukemia. The TGI was above 100000 nM with K-562 leukemia; > 4680 nM and 4450 nM in the assay with KM12 colon; above 38700 nM with SW-620 colon; > 4660 nM and 3840 nM in the assay with SN12C renal; 1270 nM and 4340 nM with UACC-257 melanoma; 2800 nM and 4420 nM with NCI-H23 lung. The TGI is 5120 nM and 7060 nM with HOP-62 NSCLC; above 25100 nM with CCRF-CEM leukemia; 2700 nM and 470 nM with HOP-92 NSCLC.
Regarding `CC1(C)N=C(N)N=C(N)N1c1ccc(OCC(=O)Nc2ccccc2)c(Cl)c1`, the GI50 with K-562 leukemia is 446 nM; in the assay on KM12 colon, 842 nM; in the assay with SW-620 colon it was 456 nM; with SN12C renal, 647 nM; in the assay on UACC-257 melanoma, above 25400 nM; in the assay with NCI-H23 lung, 2960 nM. Moreover, the GI50 with HOP-62 NSCLC was 5770 nM; in the assay with CCRF-CEM leukemia it was 2170 nM; in the assay with HOP-92 NSCLC it was 68900 nM. Also, the TGI in the assay on K-562 leukemia, in the assay with KM12 colon, in the assay with SW-620 colon, with SN12C renal, in the assay on UACC-257 melanoma and with NCI-H23 lung was above 100000 nM each time. For the same compound, the TGI in the assay with HOP-62 NSCLC, with CCRF-CEM leukemia and in the assay on HOP-92 NSCLC was above 100000 nM in each case.
In the case of `Cn1c(/C(C#N)=C/c2ccc3ccccc3c2)cc2ccccc21`, the GI50 was 45.5 nM in the assay on K-562 leukemia; 114 nM in the assay with KM12 colon; 93.5 nM in the assay with SW-620 colon; 389 nM in the assay on SN12C renal; above 100000 nM with UACC-257 melanoma; 392 nM in the assay with NCI-H23 lung. Besides, the GI50 was 357 nM in the assay on HOP-62 NSCLC, 267 nM in the assay on CCRF-CEM leukemia and 39.5 nM in the assay on HOP-92 NSCLC. Besides, the TGI with K-562 leukemia, in the assay with KM12 colon, in the assay with SW-620 colon, in the assay with SN12C renal, with UACC-257 melanoma and with NCI-H23 lung was above 100000 nM each time. The TGI in the assay with HOP-62 NSCLC, in the assay on CCRF-CEM leukemia and in the assay with HOP-92 NSCLC was above 100000 nM each time.
Turning to `COc1ccccc1/C=C/C(=O)/C=C/c1ccccc1O`, the GI50 with K-562 leukemia was 441 nM; in the assay with KM12 colon, 369 nM; with SW-620 colon, 392 nM; with SN12C renal, 1660 nM; with UACC-257 melanoma, 1710 nM; with NCI-H23 lung, 1500 nM. For the same compound, the GI50 in the assay on HOP-62 NSCLC is 3060 nM; with CCRF-CEM leukemia, 200 nM; with HOP-92 NSCLC, 1780 nM. The TGI in the assay with KM12 colon worked out at 1500 nM; in the assay with SW-620 colon, 1470 nM; in the assay with SN12C renal, 5650 nM; in the assay on UACC-257 melanoma, 3630 nM; with NCI-H23 lung, 4100 nM; with HOP-62 NSCLC, 6630 nM. The TGI was 544 nM in the assay with CCRF-CEM leukemia and 6080 nM in the assay on HOP-92 NSCLC.
